Measured values published in the supplement of paper PMC4862054.

Tests used:
Conditions in all cases: incubation time: 72 h
[1] = test system: MDA-MB-436; experiment: normalised response (% of control), CellTox Green; higher = less cell death (100 = DMSO, 0 = benzethonium chloride kill control)
In short: (§1)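 Values are normalised signals, each belonging to one concentration of the series. Breast cancer cells (20 µl suspension) were seeded into 384-well plates with compound at 5 concentrations in 10-fold steps over a compound-specific 10,000-fold range and incubated 72 h. Readouts were CellTox Green fluorescence (485/520 nm), then CellTiter-Glo luminescence after 10 min at room temperature, with each plate set to 0.1 % DMSO as 100 and a positive kill control as 0.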

[2] = test system: MDA-MB-468; experiment: as above
In short: as §1

[3] = test system: CAL-148; experiment: as above
In short: as §1

[4] = test system: CAL-120; experiment: as above
In short: as §1

[5] = test system: MDA-MB-453; experiment: as above
In short: as §1

[6] = test system: MDA-MB-231; experiment: as above
In short: as §1

[7] = test system: DU-4475; experiment: as above
In short: as §1

[8] = test system: HCC1599; experiment: as above
In short: as §1

[9] = test system: BT-474; experiment: as above
In short: as §1

[10] = test system: BT-549; experiment: as above
In short: as §1

[11] = test system: HCC1937; experiment: as above
In short: as §1

[12] = test system: Hs578T; experiment: as above
In short: as §1

[13] = test system: MFM-223; experiment: as above
In short: as §1

[14] = test system: HDQ-P1; experiment: as above
In short: as §1

[15] = test system: CAL-51; experiment: as above
In short: as §1

[16] = test system: MCF-10A; experiment: as above
In short: as §1

[17] = test system: CAL-85-1; experiment: as above
In short: as §1

[18] = test system: HCC1143; experiment: as above
In short: as §1

[19] = test system: MDA-MB-436; experiment: normalised response (% of control), CellTiter-Glo; higher = more viable cells (100 = DMSO, 0 = benzethonium chloride kill control)
Procedure: (§2)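 DSRT, 72 h incubation, CellTox Green / CellTiter-Glo readout. Signal is normalised to DMSO and benzethonium chloride controls. Value is the normalised response at dose 3.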

[20] = test system: MDA-MB-468; experiment: as above
Procedure: as §2

[21] = test system: CAL-148; experiment: as above
Procedure: as §2

[22] = test system: CAL-120; experiment: as above
Procedure: as §2

[23] = test system: MDA-MB-453; experiment: as above
Procedure: as §2

[24] = test system: MDA-MB-231; experiment: as above
Procedure: as §2

[25] = test system: DU-4475; experiment: as above
Procedure: as §2

[26] = test system: HCC1599; experiment: as above
Procedure: as §2

[27] = test system: BT-474; experiment: as above
Procedure: as §2

[28] = test system: BT-549; experiment: as above
Procedure: as §2

[29] = test system: HCC1937; experiment: as above
Procedure: as §2

[30] = test system: Hs578T; experiment: as above
Procedure: as §2

[31] = test system: MFM-223; experiment: as above
Procedure: as §2

[32] = test system: SK-BR-3; experiment: as above
Procedure: as §2

[33] = test system: HDQ-P1; experiment: as above
Procedure: as §2

[34] = test system: CAL-51; experiment: as above
Procedure: as §2

[35] = test system: MCF-10A; experiment: as above
Procedure: as §2

[36] = test system: CAL-85-1; experiment: as above
Procedure: as §2

[37] = test system: HCC1143; experiment: as above
Procedure: as §2

Compound	normalised response [1]	normalised response [2]	normalised response [3]	normalised response [4]	normalised response [5]	normalised response [6]	normalised response [7]	normalised response [8]	normalised response [9]	normalised response [10]	normalised response [11]	normalised response [12]	normalised response [13]	normalised response [14]	normalised response [15]	normalised response [16]	normalised response [17]	normalised response [18]	normalised response [19]	normalised response [20]	normalised response [21]	normalised response [22]	normalised response [23]	normalised response [24]	normalised response [25]	normalised response [26]	normalised response [27]	normalised response [28]	normalised response [29]	normalised response [30]	normalised response [31]	normalised response [32]	normalised response [33]	normalised response [34]	normalised response [35]	normalised response [36]	normalised response [37]
CN1CCN(c2ccc3nc(-c4c(N)c5c(F)cccc5[nH]c4=O)[nH]c3c2)CC1 [Dovitinib] (100 nM)	72.4%	87.8%	85.1%	96%	101%	89.5%	100%	108%	96.5%	95.3%	89.1%	93.3%	105%	115%	107%	102%	90.3%	97.1%	96.5%	97.3%	99.7%	93.9%	100%	92.4%	97.1%	94.2%	104%	103%	94.8%	101%	100%	94.7%	97.3%	107%	99.1%	94.7%	103%
O=c1[nH]cc(F)c(=O)[nH]1 [Fluorouracil] (100 nM)	51.5%	99.4%	102%	100%	106%	111%	106%	103%	93%	96.8%	103%	101%	106%	105%	113%	114%	114%	92.6%	105%	98%	111%	107%	116%	111%	102%	116%	103%	109%	95.6%	105%	104%	104%	102%	105%	113%	98.3%	109%
Cn1cnc2c(F)c(Nc3ccc(Br)cc3F)c(C(=O)NOCCO)cc21 [MEK-162] (10 nM)	99.8%	125%	103%	97.6%	104%	81.9%	97.6%	93%	90.8%	82.7%	78.5%	108%	102%	102%	112%	68.5%	99.8%	73%	103%	93%	101%	97.9%	105%	99.3%	92.9%	93.8%	103%	94.5%	90.8%	90.5%	99.4%	101%	88.9%	114%	70.8%	95.2%	94.8%
CCOc1cc2ncc(C#N)c(Nc3ccc(OCc4ccccn4)c(Cl)c3)c2cc1NC(=O)/C=C/CN(C)C [Neratinib] (10 nM)	54.2%	126%	104%	104%	108%	120%	108%	104%	93.4%	111%	102%	88.5%	94.8%	98.1%	110%	116%	112%	103%	99.7%	91.7%	101%	104%	78.3%	100%	105%	112%	101%	97.9%	95.1%	99.2%	101%	37.4%	83.5%	91.5%	98.1%	102%	97.3%
COc1ccc(C2=N[C@@H](c3ccc(Cl)cc3)[C@@H](c3ccc(Cl)cc3)N2C(=O)N2CCNC(=O)C2)c(OC(C)C)c1 [Nutlin-3] (100 nM)	64%	100%	97.2%	102%	97.3%	100%	102%	102%	71.6%	99%	87.5%	101%	95.2%	97.3%	97.1%	103%	102%	109%	102%	100%	115%	99.5%	108%	102%	104%	105%	101%	107%	95.4%	103%	102%	104%	99.9%	64%	96.7%	92.4%	105%
COC(=O)C[C@](O)(CCCC(C)(C)O)C(=O)O[C@@H]1C(OC)=C[C@]23CCCN2CCc2cc4c(cc2[C@H]13)OCO4 [Omacetaxine] (100 nM)	77.6%	113%	83.4%	99.4%	110%	92.3%	97.5%	112%	98.3%	103%	124%	38.3%	48.9%	100%	121%	97.1%	10.6%	72.7%	20%	15.3%	40.9%	59%	56.4%	65%	4.3%	24.4%	74.6%	18.8%	41.1%	28.2%	55.4%	44.9%	31%	19.9%	61.5%	6.28%	44.4%
CC(=O)O[C@H]1C(=O)[C@@]2(C)[C@H]([C@H](OC(=O)c3ccccc3)[C@]3(O)C[C@H](OC(=O)[C@H](O)[C@@H](NC(=O)c4ccccc4)c4ccccc4)C(C)=C1C3(C)C)[C@]1(OC(C)=O)CO[C@@H]1C[C@@H]2O [Paclitaxel] (10 nM)	-40.2%	41.3%	39.4%	89.9%	92.9%	41%	97.6%	91.5%	74.6%	72.5%	86.7%	34.1%	59.4%	87.9%	19.9%	78.9%	20.9%	88.4%	43%	28.7%	42.7%	70.1%	80.2%	62.9%	89%	80.5%	60.3%	34%	68.2%	43.3%	61.6%	16.9%	69.1%	52.7%	52.6%	31%	42.3%
O=C(c1ccc(OCCN2CCCCC2)cc1)c1c(-c2ccc(O)cc2)sc2cc(O)ccc12 [Raloxifene] (100 nM)	107%	102%	101%	98.8%	107%	98.8%	103%	92.4%	104%	92.5%	108%	94.3%	91.7%	90.1%	97.2%	93.2%	98.3%	99.7%	99.9%	98.7%	107%	99.1%	99.7%	105%	100%	100%	101%	98.3%	104%	106%	104%	104%	106%	87.8%	103%	104%	109%
